According to US9840494B2, “Quinazoline derivative” (Tianjin Hemay Oncology Pharmaceutical Co., Ltd., priority 2013, dated 2017):

Experiments:
[1] = Bioavailability assay, Experiment III (free base); type: in vivo; details: Wistar rats
Description: Experiment III. Bioavailability Assay for N-[4-(3-chloro-4-fluorophenylamino)-7-(2-methoxyethoxy)quinazolin-6-yl]-2-[1-(2-methoxyethyl)piperidin-4-ylidene]acetamide
8 Wistar rats (male, weighing 160-190 g) were purchased from Laboratory Animal Center, Chinese PLA Academy of Military Medical Sciences. License No.: SCXK (Army) 2012-0004; Certificate No.: 0037074.
1) the compound was precisely weighed in a 10 ml glass tube;
2) The volume of DMSO was 2% of the total volume and DMSO was pipetted. The tip of the pipette was slowly rotated with being pressed against the inner wall of the centrifuge tube, and DMSO was pipetted in several times to dissolve the compound adsorbed on the wall of the centrifuge tube. After all the compound was transferred to the bottom portion of the centrifuge tube, the compound was dissolved by vortex and then placed in a water bath at 80° C.;
3) polyoxylethylene 35-castor oil of which the volume was 6% of the total volume was added and vortex;
4) sodium chloride solution for injection (0.9%) of which the volume was 92% of the total volume was added and vortexed to give a clear solution which will be used within 60 min
8 rats were fasted and ad libitum accessed to water for 12 h before administration. They were randomly divided into two groups, i.e. four rats per group, and were administered with the drug according to the administration scheme. Blood (about 0.5 ml) was drawn from the orbital venous plexus before dosing and at 5 min, 0.5 h, 1 h, 2 h, 3 h, 4 h, 5 h, 6 h and 8 h after dosing, and put into a heparinized centrifuge tube and centrifuged at 8000 r/min for 10 min 100 μl of the plasma was recovered, and 200 μl of 0.2% acetic acid in methanol (containing an internal standard (irbesartan, 20 ng/ml)) was added thereto to precipitate protein, vortexed for 2 min and centrifuged at 13000 r/min for 10 min The supernatant was obtained, and 20 μl of the supernatant was injected for detection.
Chromatographic column: phenomenex Synergi Polar-RP (150×4.6 mm, 2.5 μm)
Flow rate: 1 ml/min; column temperature: 40° C.
Mobile phase: A phase: 5 mM aqueous solution of ammonium formate; B phase: methanol, and the gradient was as follows: […]
API3000 LC-MS/MS; ESI source; MRM positive ion scan mode; and the parameters were as follows:
The main pharmacokinetic parameters and oral bioavailability results were calculated by using DAS2.0 (statistical moment).
Method for the calculation of bioavailability: F=(AUCig×Div)/(AUCiv×Dig)×100%
wherein D is dose; AUC: the area under the plasma drug concentration-time curve; ig represents intragastric administration; and iv represents intravenous injection administration.

[2] = test system: human pancreatic cancer cell line AsPC-1; assay: In vitro inhibitory action on human tumor cells, AsPC-1 (MTT); type: cell-based; details: ASPC1, 72 h, MTT assay, usually 3 days
Description: Human epidermoid carcinoma cell line A431, human non-small cell lung cancer cell line HCC827, head and neck cancer cell lines Fadu and human pancreatic cancer cell line AsPC-1 were purchased from Cell Bank, Chinese Academy of Sciences.
3.2 Cell culture method: cells were cultured in the complete medium at 37° C. under 5% CO2 and saturated humidity until logarithmic growth phase, i.e., adherent cells substantially approach complete confluence, and then collected for subsequent assay. For the adherent cells, they were firstly digested with trypsin/EDTA to detach.
3.3 A certain number of cells were seeded into 96-well cell culture plates (hereinafter referred to as 96-well plates). […] Finally, total cellular protein in the wells was determined using SRB assay, or cell viability was determined with MTT assay.
3.3.1 The cell seeding concentration was determined by cell growth curve assay which completely simulates compound inhibition assay process. […]
3.4 Dilution and addition of compounds: the concentration of DMSO that can be tolerant by the cells was determined by DMSO tolerance assay, and thereby selecting the dilution and addition methods of compounds. The effects of different concentrations of DMSO on cell growth were determined by DMSO tolerance assay. […] Two methods are finally determined as follows. […]

[3] = 20 mg/kg intragastric gavage, preformulation
[4] = 20 mg/kg tail intravenous injection, preformulation
[5] = male, rat, plasma, po, 20 mg/kg intragastric gavage, preformulation
[6] = male, rat, plasma, 20 mg/kg tail intravenous injection, preformulation

SMILES | CLz/F [1, 3] | t½z [1, 3] | CLz [1, 4] | t½z [1, 4] | bioavailability ([1]; male, rat, plasma, oral, 20 mg/kg ig vs 20 mg/kg iv) | AUC(0-inf) [1, 5] | AUC(0-t) [1, 5] | Cmax [1, 5] | Tmax [1, 5] | Vd/F ([1]; male, rat, plasma, po, 20 mg/kg intragastric gavage, preformulation, read-out: Vz/F) | AUC(0-inf) [1, 6] | AUC(0-t) [1, 6] | Cmax [1, 6] | Tmax [1, 6] | Vd ([1]; male, rat, plasma, 20 mg/kg tail intravenous injection, preformulation, read-out: Vz) | IC50 [2]
COCCOc1cc2ncnc(Nc3ccc(F)c(Cl)c3)c2cc1NC(=O)C=C1CCN(CCOC)CC1 [Compound 1, N-[4-(3-chloro-4-fluorophenylamino)-7-(2-methoxyethoxy)quinazolin-6-yl]-2-[1-(2-methoxyethyl)piperidin-4-ylidene]acetamide] | 103 mL/min/kg | 4.59 h | 24.7 mL/min/kg | 4.39 h | 23.9% | 3320 ng·h/mL | 2190 ng·h/mL | 416 ng/mL | 2.5 h | 39.2 L/kg | 13900 ng·h/mL | 11800 ng·h/mL | 13200 ng/mL | 0.083 h | 9.55 L/kg | 
COCCOc1cc2ncnc(Nc3ccc(F)c(Cl)c3)c2cc1NC(=O)C=C1CCN(CCOC)CC1.CS(=O)(=O)O [Compound 3, N-[4-(3-chloro-4-fluorophenylamino)-7-(2-methoxyethoxy)quinazolin-6-yl]-2-[1-(2-methoxyethyl)piperidin-4-ylidene]acetamide dimethylsulfonate] |  |  |  |  |  |  |  |  |  |  |  |  |  |  |  | 4.3 µM
